Results: patent US20070184102A1, “LATEX OR PSEUDOLATEX COMPOSITIONS, COATINGS AND COATING PROCESSES” (priority 2006, published 2007)
Where two headings read alike, the source gives them in different places.

Assays:
[1] = Assessment of cast mixed films (appearance, transparency, inhomogeneities, cracks, brittleness or flexibility); format: physicochemical; settings: films cast on Teflon, cured 24 hours at 60° C.
Procedure: (§1) Aquacoat® ECD was plasticized by stirring with triethyl citrate for 24 hours prior to addition of permeation enhancing agent. The dispersion stability was checked by optical microscopy for aggregation, coagulation or flocculation. Films were cast on Teflon® and cured for 24 hours at 60° C. The cast films were assessed in terms of appearance, transparency, inhomogeneities, or cracks and mechanical properties (semi-quantitative brittleness or flexibility).

[2] = Procedure: as §1
[3] = not told, pH 7.4
[4] = 10 to 30% w/w with respect to Aquacoat ECD solids, Aquacoat ECD plasticized with 25% w/w triethyl citrate

Compound	Compatibility with / destabilisation of Aquacoat ECD dispersion [2]	Properties of cast mixed films with Aquacoat ECD [1]	other results
O=P([O-])([O-])O.[Na+].[Na+] [Disodium Hydrogen Phosphate]		inhomogenous films	Compatibility with / destabilisation of Aquacoat ECD dispersion [2, 4]: compatible
[Cl-].[Na+] [Sodium chloride, Sodium Chloride, reference compound]		inhomogenous films, with recrystallisation and cracking	Compatibility with / destabilisation of Aquacoat ECD dispersion [2, 4]: destabilized
Polyvinyl alcohol-polyethylene glycol graft copolymer [Kollicoat® IR]	compatible in dispersion		Effect on water permeability (diffusion coefficient of water) of Aquacoat ECD-based films [3]: significantly increased; Stability of the aqueous ethylcellulose coating dispersions in presence of the additive [2]: did not affect
OC[C@@H](O)[C@@H](O)[C@H](O)[C@H](O)CO [mannitol, Mannitol]	compatible	good films	
Hydroxypropylmethylcellulose [reference compound]	destabilized		
Starch	compatible		
OC[C@@H](O)[C@@H](O)[C@H](O)[C@@H](O)CO [sorbitol, Sorbitol]	compatible	good films	
OC[C@H]1O[C@@H](O[C@H]2[C@H](O)[C@@H](O)C(O)O[C@@H]2CO)[C@H](O)[C@@H](O)[C@H]1O (stereo partly drawn) [lactose, Lactose]	compatible	good films	

More lines, main results first:

Compatibility with / destabilisation of Aquacoat ECD dispersion [2]	Compound	Properties of cast mixed films with Aquacoat ECD [1]	other results
viscous stable dispersions	Lambda carrageenan [Viscarin® GP209]		Stability of the aqueous ethylcellulose coating dispersions in presence of the additive [2]: stable
viscous stable dispersions	Kappa carrageenan [Gelcarin® GP911]		
compatible	OC[C@H]1O[C@@](CO)(O[C@H]2O[C@H](CO)[C@@H](O)[C@H](O)[C@H]2O)[C@@H](O)[C@@H]1O [Sucrose]	good films	
very viscous destabilised	Microcrystalline cellulose-carrageenan [LustreClear® LC103]		
not destabilized	Iota carrageenan [Gelcarin® GP379]		
compatible	Polyvinyl acetate [Kollicoat® SR 30 D]		
destabilized	Sodium Carboxymethylcellulose [reference compound]		
